Laboratory results taken from patent US20250243210A1, “CRBN E3 LIGASE LIGAND COMPOUND, PROTEIN DEGRADER DEVELOPED BASED THEREON AND THEIR APPLICATIONS” (GLUETACS THERAPEUTICS (SHANGHAI) CO., LTD., priority 2021, published 2025).
pIC50: −log10 of the molar value. Where two headings read alike, the source gives them in different places.

How the values were obtained:
SW620 = test: CCK-8 tumor cell proliferation, SW620; format: cell-based, Human; conditions: SW620, 96 h, read-out: IC50 for inhibiting the proliferation of tumor cells, SW620
Protocol: (§1) Determination of half inhibitory concentration (IC50) of the compounds against tumor cells:
(§2) The tumor cells used herein were cultured in a cell culture medium listed in table 6 at 37° C. in an incubator with 5% CO2.
(§3) After the cells were treated with the compounds of the present disclosure for a period of time (the treatment times listed in Table 7), the cell viability detection reagent was added to the culture medium for cell viability assessment according to the instructions provided with the CCK-8 kit. […] The growth inhibition of the compounds of the present disclosure on cells was plotted by Prism Graphpad software, and the IC50 values of the compounds of the present disclosure were calculated therefrom.

LNcap = test: CCK-8 tumor cell proliferation, LNcap; format: cell-based, Human; conditions: 96 h, read-out: IC50 for inhibiting the proliferation of tumor cells, LNcap
Protocol: as §1
(§4) The tumor cells used herein were cultured in a cell culture medium listed in table 6 at 37° C. in an incubator with 5% CO2. Prior to experimentation, all cells used were correctly identified by STR profiling, and tested negative for mycoplasma through routine screenings.
(§5) IC50 values of the compounds of the present disclosure (including the compounds in Table 4 and compounds of examples 1-72) were measured using the Meilun Cell Counting Kit-S kit from Dalian Meilun Biotech Co., Ltd. Assay details are as follows: tumor cells were seeded in a 96-well plate at a density listed in Table 7. After 24 h, 100 μL of the inoculated cells were treated with 0.5 μL of the compounds of the present disclosure (including the compounds in Table 4 and compounds of examples 1-72) at 10 different successively decreasing concentrations (starting at the highest concentration of 10 μM; 5-fold serial dilutions). After the cells were treated with the compounds of the present disclosure for a period of time (the treatment times listed in Table 7), the cell viability detection reagent was added to the culture medium for cell viability assessment according to the instructions provided with the CCK-8 kit. […] The growth inhibition of the compounds of the present disclosure on cells was plotted by Prism Graphpad software, and the IC50 values of the compounds of the present disclosure were calculated therefrom.

DU-145 = test: CCK-8 tumor cell proliferation, DU-145; format: cell-based, Human; conditions: DU-145, 96 h, read-out: IC50 for inhibiting the proliferation of tumor cells, DU-145
Protocol: as §1, §2, §3

WSU-DLCL2 = test: CCK-8 tumor cell proliferation, WSU-DLCL2; format: cell-based, Human; conditions: read-out: IC50 for inhibiting the proliferation of tumor cells, WSU-DLCL2
Protocol: as §1, §2, §3

MGC80-3 = test: CCK-8 tumor cell proliferation, MGC80-3; format: cell-based, Human; conditions: read-out: IC50 for inhibiting the proliferation of tumor cells, MGC80-3
Protocol: as §1, §4, §5

A549 = test: CCK-8 tumor cell proliferation, A549; format: cell-based, Human; conditions: A549, 96 h, read-out: IC50 for inhibiting the proliferation of tumor cells, A549
Protocol: as §1, §4, §5

Hep3B2.1-7 = test: CCK-8 tumor cell proliferation, Hep3B2.1-7; format: cell-based, Human; conditions: Hep3B2.1-7, 96 h, read-out: IC50 for inhibiting the proliferation of tumor cells, Hep3B2.1-7
Protocol: as §1, §4, §5

MM.1R = test: CCK-8 tumor cell proliferation, MM.1R; format: cell-based; conditions: 72 h, read-out: IC50 for inhibiting the proliferation of tumor cells, MM.1R
Protocol: as §1, §2, §3

PC-3 = test: CCK-8 tumor cell proliferation, PC-3; format: cell-based, Human; conditions: PC-3, 96 h, read-out: IC50 for inhibiting the proliferation of tumor cells, PC-3
Protocol: as §1, §2, §3

Kasumi-1 = test: CCK-8 tumor cell proliferation, Kasumi-1; format: cell-based; conditions: Homo sapiens, Kasumi-1, 72 h, read-out: IC50 for inhibiting the proliferation of tumor cells, Kasumi-1
Protocol: as §1, §2, §3

SU-DHL-6 = test: CCK-8 tumor cell proliferation, SU-DHL-6; format: cell-based; conditions: Homo sapiens, SU-DHL-6, 72 h, read-out: IC50 for inhibiting the proliferation of tumor cells, SU-DHL-6
Protocol: as §1, §2, §3

[1] = Homo sapiens, WSUDLCL2, WSU-DLCL2, 96 h
[2] = Homo sapiens, MGC-803, MGC80-3, 96 h

CN(C)C(=O)c1cc2cnc(Nc3ccc(N4CCC(CN5CC6CCC(C5)N6c5ccc6c(c5)C(=O)N(C5CCC(=O)NC5=O)C6=O)CC4)cn3)nc2n1C1CCCC1 (stereo not drawn) [GT-03651, 7-cyclopentyl-2-((5-(4-((8-(2-(2,6-dioxopiperidin-3-yl)-1,3-dioxoisoindolin-5-yl)-3,8-diazabicyclo[3.2.1]octan-3-yl)methyl)piperidin-1-yl)pyridin-2-yl)amino)-N,N-dimethyl-7H-pyrrolo[2,3-d]pyrimidine-6-carboxamide]
pIC50 (SW620; Homo sapiens, SW-620, CCK-8, Table 9 (CDK4/6-based)): 6.30 to 7.00

CC1(C)[C@H](NC(=O)c2ccc(N3CCC(CN4CC5CCC4CN5c4cc5c(cc4F)C(=O)N(C4CCC(=O)NC4=O)C5=O)CC3)nc2)C(C)(C)[C@H]1Oc1ccc(C#N)c(Cl)c1 (stereo partly drawn) [GT-03494, N-((1r,3r)-3-(3-chloro-4-cyanophenoxy)-2,2,4,4-tetramethylcyclobutyl)-6-(4-((5-(2-(2,6-dioxopiperidin-3-yl)-6-fluoro-1,3-dioxoisoindolin-5-yl)-2,5-diazabicyclo[2.2.2]octan-2-yl)methyl)piperidin-1-yl)nicotinamide]
pIC50 (LNcap; Homo sapiens): 7.00 to 7.30 | pIC50 (DU-145; Homo sapiens): 5.30 to 6.00 | pIC50 (WSU-DLCL2; [1]): 7.00 to 7.30 | pIC50 (MGC80-3; [2]): 7.00 to 7.30 | pIC50 (A549; Homo sapiens): 6.30 to 7.00 | pIC50 (Hep3B2.1-7; Homo sapiens): 7.00 to 7.30

N#Cc1ccc(OC2CCC(NC(=O)c3ccc(N4CCC(CN5CC6CCC(C5)N6c5ccc6c(c5)C(=O)N(C5CCC(=O)NC5=O)C6=O)CC4)nn3)CC2)cc1Cl (stereo not drawn) [GT-03488, N-((1r,4r)-4-(3-chloro-4-cyanophenoxy)cyclohexyl)-6-(4-((8-(2-(2,6-dioxopiperidin-3-yl)-1,3-dioxoisoindolin-5-yl)-3,8-diazabicyclo[3.2.1]octan-3-yl)methyl)piperidin-1-yl)pyridazine-3-carboxamide]
pIC50 (LNcap): ≥ 7.30 | pIC50 (DU-145): 7.00 to 7.30 | pIC50 (MM.1R): ≥ 7.30 | pIC50 (MGC80-3; MGC80-3, 96 h): ≥ 7.30 | pIC50 (A549): 7.00 to 7.30 | pIC50 (Hep3B2.1-7): ≥ 7.30

N#Cc1ccc(OC2CCC(NC(=O)c3ccc(N4CCC(CN5CCN(c6cc7c(cc6F)C(=O)N(C6CCC(=O)NC6=O)C7=O)CC5)CC4)nn3)CC2)cc1Cl (stereo not drawn) [GT-03016, N-((1r,4r)-4-(3-chloro-4-cyanophenoxy)cyclohexyl)-6-(4-((4-(2-(2,6-dioxopiperidin-3-yl)-6-fluoro-1,3-dioxoisoindolin-5-yl)piperazin-1-yl-2,2,3,3,5,5,6,6-d8)methyl)piperidin-1-yl)pyridazine-3-carboxamide]
pIC50 (LNcap): 6.00 to 6.30 | pIC50 (PC-3): 6.00 to 6.30 | pIC50 (DU-145): 6.00 to 6.30 | pIC50 (MM.1R): 5.30 to 6.00 | pIC50 (WSU-DLCL2; WSU-DLCL2, 96 h): 5.30 to 6.00 | pIC50 (MGC80-3; MGC80-3, 96 h): 6.30 to 7.00 | pIC50 (SW620; CCK-8, Table 8 (AR-based)): 7.00 to 7.30

CC1(C)[C@H](NC(=O)c2ccc(N3CCC(CN4CC5CCC(C4)N5c4cc5c(cc4F)C(=O)N(C4CCC(=O)NC4=O)C5=O)CC3)nn2)C(C)(C)[C@H]1Oc1ccc(C#N)c(Cl)c1 (stereo partly drawn) [GT-03398, N-((1r,3r)-3-(3-chloro-4-cyanophenoxy)-2,2,4,4-tetramethylcyclobutyl)-6-(4-((8-(2-(2,6-dioxopiperidin-3-yl)-6-fluoro-1,3-dioxoisoindolin-5-yl)-3,8-diazabicyclo[3.2.1]octan-3-yl)methyl)piperidin-1-yl)pyridazine-3-carboxamide]
pIC50 (LNcap; Homo sapiens): 7.00 to 7.30 | pIC50 (PC-3; Homo sapiens): ≥ 7.30 | pIC50 (DU-145; Homo sapiens): 7.00 to 7.30 | pIC50 (MGC80-3; [2]): ≥ 7.30 | pIC50 (A549; Homo sapiens): 7.00 to 7.30

CC1(C)[C@H](NC(=O)c2ccc(N3CCC(CN4CC5CCC4CN5c4ccc5c(c4)C(=O)N(C4CCC(=O)NC4=O)C5=O)CC3)nc2)C(C)(C)[C@H]1Oc1ccc(C#N)c(Cl)c1 (stereo partly drawn) [GT-03481, N-((1r,3r)-3-(3-chloro-4-cyanophenoxy)-2,2,4,4-tetramethylcyclobutyl)-6-(4-((5-(2-(2,6-dioxopiperidin-3-yl)-1,3-dioxoisoindolin-5-yl)-2,5-diazabicyclo[2.2.2]octan-2-yl)methyl)piperidin-1-yl)nicotinamide]
pIC50 (LNcap; Homo sapiens): 6.30 to 7.00 | pIC50 (WSU-DLCL2; [1]): 6.30 to 7.00 | pIC50 (MGC80-3; [2]): 6.30 to 7.00 | pIC50 (A549; Homo sapiens): 6.30 to 7.00 | pIC50 (Hep3B2.1-7; Homo sapiens): ≥ 7.30

CC1(C)[C@H](NC(=O)c2ccc(N3CCC(CN4CC5CCC(C4)N5c4cc5c(cc4F)C(=O)N(C4CCC(=O)NC4=O)C5=O)CC3)nc2)C(C)(C)[C@H]1Oc1ccc(C#N)c(Cl)c1 (stereo partly drawn) [GT-03402, N-((1r,3r)-3-(3-chloro-4-cyanophenoxy)-2,2,4,4-tetramethylcyclobutyl)-6-(4-((8-(2-(2,6-dioxopiperidin-3-yl)-6-fluoro-1,3-dioxoisoindolin-5-yl)-3,8-diazabicyclo[3.2.1]octan-3-yl)methyl)piperidin-1-yl)nicotinamide]
pIC50 (LNcap; Homo sapiens): 7.00 to 7.30 | pIC50 (PC-3; Homo sapiens): 7.00 to 7.30 | pIC50 (DU-145; Homo sapiens): 7.00 to 7.30 | pIC50 (WSU-DLCL2; [1]): 6.30 to 7.00 | pIC50 (A549; Homo sapiens): 6.30 to 7.00

N#Cc1ccc(OC2CCC(NC(=O)c3ccc(N4CCC(CN5CC6CCC5CN6c5cc6c(cc5F)C(=O)N(C5CCC(=O)NC5=O)C6=O)CC4)nn3)CC2)cc1Cl (stereo not drawn) [GT-03773, N-((1r,4r)-4-(3-chloro-4-cyanophenoxy)cyclohexyl)-6-(4-((5-(2-(2,6-dioxopiperidin-3-yl)-6-fluoro-1,3-dioxoisoindolin-5-yl)-2,5-diazabicyclo[2.2.2]octan-2-yl)methyl)piperidin-1-yl)pyridazine-3-carboxamide]
pIC50 (SW620; CCK-8, Table 8 (AR-based)): 6.30 to 7.00

Cc1nc(Nc2ncc(C(=O)Nc3c(C)cccc3Cl)s2)cc(N2CCC(CN3CC4CC(C3)N4c3ccc4c(c3)C(=O)N(C3CCC(=O)NC3=O)C4=O)CC2)n1 (stereo not drawn) [GT-03630, N-(2-chloro-6-methylphenyl)-2-((6-(4-((6-(2-(2,6-dioxopiperidin-3-yl)-1,3-dioxoisoindolin-5-yl)-3,6-diazabicyclo[3.1.1]heptan-3-yl)methyl)piperidin-1-yl)-2-methylpyrimidin-4-yl)amino)thiazole-5-carboxamide]
pIC50 (Kasumi-1): ≥ 7.30 | pIC50 (SU-DHL-6): 6.30 to 7.00

N#Cc1ccc(OC2CCC(NC(=O)c3ccc(N4CCC(CN5CC6CCC(C5)N6c5cc6c(cc5F)C(=O)N(C5CCC(=O)NC5=O)C6=O)CC4)nn3)CC2)cc1Cl (stereo not drawn) [GT-02765, N-((1r,4r)-4-(3-chloro-4-cyanophenoxy)cyclohexyl)-6-(4-((8-(2-(2,6-dioxopiperidin-3-yl)-6-fluoro-1,3-dioxoisoindolin-5-yl)-3,8-diazabicyclo[3.2.1]octan-3-yl)methyl)piperidin-1-yl)pyridazine-3-carboxamide]
pIC50 (LNcap): ≥ 7.30 | pIC50 (PC-3): ≥ 7.30 | pIC50 (DU-145): 7.00 to 7.30 | pIC50 (MM.1R): 6.30 to 7.00 | pIC50 (WSU-DLCL2; WSU-DLCL2, 96 h): ≥ 7.30 | pIC50 (MGC80-3; MGC80-3, 96 h): ≥ 7.30 | pIC50 (SW620; CCK-8, Table 8 (AR-based)): ≥ 7.30 | pIC50 (A549): ≥ 7.30 | pIC50 (Hep3B2.1-7): ≥ 7.30

CN(C)C(=O)c1cc2cnc(Nc3ccc(N4CCNCC4)cn3)nc2n1C1CCCC1 [Ribociclib, reference compound]
pIC50 (SW620; Homo sapiens, SW-620, CCK-8, Table 9, numeric value): < 5.00
